# How the values were obtained:
# UO-31 = experiment: Growth inhibition of human UO31 cells assessed as cell growth at 10 uM after 48 hrs by sulforhodamine B assay; type: functional; conditions: UO-31, 48 h, read-out: Activity
# PC-3 = experiment: Growth inhibition of human PC3 cells assessed as cell growth at 10 uM after 48 hrs by sulforhodamine B assay; type: functional; conditions: PC-3, 48 h, read-out: Activity
# HT-29 [1] = experiment: Growth inhibition of human HT-29 cells after 48 hrs by sulforhodamine B assay; type: functional; conditions: HT-29, 48 h; for CC50: read-out: LC50 (the source's name)
# [2] = Growth inhibition of human HCC2998 cells after 48 hrs by sulforhodamine B assay; type: functional; conditions: HCC 2998, 48 h; for CC50: read-out: LC50 (the source's name)
# NCI-H23 [3] = experiment: Growth inhibition of human NCI-H23 cells after 48 hrs by sulforhodamine B assay; type: functional; conditions: NCI-H23, 48 h
# HOP-92 = experiment: Growth inhibition of human HOP92 cells after 48 hrs by sulforhodamine B assay; type: functional, cell-based; conditions: HOP-92, 48 h
# SR = experiment: Growth inhibition of human SR cells after 48 hrs by sulforhodamine B assay; type: functional; conditions: for CC50: read-out: LC50 (the source's name)
# HL-60(TB) = experiment: Growth inhibition of human HL-60(TB) cells after 48 hrs by sulforhodamine B assay; type: functional; conditions: HL-60, 48 h; for CC50: read-out: LC50 (the source's name)
# 786-0 [4] = experiment: Growth inhibition of human 786-0 cells assessed as cell growth at 10 uM after 48 hrs by sulforhodamine B assay; type: functional; conditions: 786-0, 48 h, read-out: Activity
# SK-OV-3 [5] = experiment: Growth inhibition of human SKOV3 cells assessed as cell growth at 10 uM after 48 hrs by sulforhodamine B assay; type: functional; conditions: SK-OV-3, 48 h, read-out: Activity
# OVCAR-8 = experiment: Growth inhibition of human OVCAR8 cells assessed as cell growth at 10 uM after 48 hrs by sulforhodamine B assay; type: functional; conditions: OVCAR-8, 48 h, read-out: Activity
# SK-MEL-2 = experiment: Growth inhibition of human SK-MEL-2 cells assessed as cell growth at 10 uM after 48 hrs by sulforhodamine B assay; type: functional; conditions: SK-MEL-2, 48 h, read-out: Activity
# M14 [6] = experiment: Growth inhibition of human M14 cells assessed as cell growth at 10 uM after 48 hrs by sulforhodamine B assay; type: functional; conditions: M14, 48 h, read-out: Activity
# Malme-3M = experiment: Growth inhibition of human MALME-3M cells assessed as cell growth at 10 uM after 48 hrs by sulforhodamine B assay; type: functional; conditions: read-out: Activity
# LOX IMVI [7] = experiment: Growth inhibition of human LOXIMVI cells assessed as cell growth at 10 uM after 48 hrs by sulforhodamine B assay; type: functional; conditions: read-out: Activity
# SNB-19 [8] = experiment: Growth inhibition of human SNB19 cells assessed as cell growth at 10 uM after 48 hrs by sulforhodamine B assay; type: functional; conditions: SNB-19, 48 h, read-out: Activity
# SF-268 = experiment: Growth inhibition of human SF268 cells assessed as cell growth at 10 uM after 48 hrs by sulforhodamine B assay; type: functional; conditions: SF-268, 48 h, read-out: Activity
# HT-29 [9] = experiment: Growth inhibition of human HT-29 cells assessed as cell growth at 10 uM after 48 hrs by sulforhodamine B assay; type: functional; conditions: HT-29, 48 h, read-out: Activity
# HCT-116 = experiment: Growth inhibition of human HCT116 cells assessed as cell growth at 10 uM after 48 hrs by sulforhodamine B assay; type: functional; conditions: HCT-116, 48 h, read-out: Activity
# COLO 205 = experiment: Growth inhibition of human COLO205 cells assessed as cell growth at 10 uM after 48 hrs by sulforhodamine B assay; type: functional; conditions: COLO 205, 48 h, read-out: Activity
# NCI-H460 = experiment: Growth inhibition of human NCI-H460 cells assessed as cell growth at 10 uM after 48 hrs by sulforhodamine B assay; type: functional; conditions: NCI-H460, 48 h, read-out: Activity
# NCI-H23 [10] = experiment: Growth inhibition of human NCI-H23 cells assessed as cell growth at 10 uM after 48 hrs by sulforhodamine B assay; type: functional; conditions: NCI-H23, 48 h, read-out: Activity
# ACHN = experiment: Growth inhibition of human ACHN cells after 48 hrs by sulforhodamine B assay; type: functional; conditions: for CC50: read-out: LC50 (the source's name)
# 786-0 [11] = experiment: Growth inhibition of human 786-0 cells after 48 hrs by sulforhodamine B assay; type: functional; conditions: 786-0, 48 h; for CC50: read-out: LC50 (the source's name)
# SK-OV-3 [12] = experiment: Growth inhibition of human SKOV3 cells after 48 hrs by sulforhodamine B assay; type: functional; conditions: SK-OV-3, 48 h; for CC50: read-out: LC50 (the source's name)
# OVCAR-3 = experiment: Growth inhibition of human OVCAR3 cells after 48 hrs by sulforhodamine B assay; type: functional, cell-based; conditions: OVCAR-3, 48 h; for CC50: read-out: LC50 (the source's name)
# UACC-62 = experiment: Growth inhibition of human UACC62 cells after 48 hrs by sulforhodamine B assay; type: functional; conditions: UACC-62, 48 h
# SK-MEL-5 = experiment: Growth inhibition of human SK-MEL-5 cells after 48 hrs by sulforhodamine B assay; type: functional; conditions: SK-MEL-5, 48 h
# UACC-257 = experiment: Growth inhibition of human UACC257 cells after 48 hrs by sulforhodamine B assay; type: functional; conditions: UACC-257, 48 h; for CC50: read-out: LC50 (the source's name)
# SK-MEL-28 = experiment: Growth inhibition of human SK-MEL-28 cells after 48 hrs by sulforhodamine B assay; type: functional; conditions: SK-MEL-28, 48 h
# M14 [13] = experiment: Growth inhibition of human M14 cells after 48 hrs by sulforhodamine B assay; type: functional; conditions: M14, 48 h
# LOX IMVI [14] = experiment: Growth inhibition of human LOXIMVI cells after 48 hrs by sulforhodamine B assay; type: functional
# SNB-19 [15] = experiment: Growth inhibition of human SNB19 cells after 48 hrs by sulforhodamine B assay; type: functional; conditions: SNB-19, 48 h
# HOP-62 = experiment: Growth inhibition of human HOP62 cells assessed as cell growth at 10 uM after 48 hrs by sulforhodamine B assay; type: functional; conditions: HOP-62, 48 h, read-out: Activity
structure (smiles),measurement,setting,value
O=C(Nc1cccc(-n2cc(-c3ccncc3)c(-c3ccc(Cl)c(O)c3)n2)c1)Nc1cccc(C(F)(F)F)c1,growth at 10 µM,UO-31,24.8%
same,growth at 10 µM,PC-3,4.28%
same,GI50,HT-29 [1],9.82 µM
same,TGI,HT-29 [1],> 32.5 µM
same,CC50,HT-29 [1],> 32.5 µM
same,GI50,[2],7.26 µM
same,TGI,[2],> 32.5 µM
same,CC50,[2],> 32.5 µM
same,GI50,NCI-H23 [3],1900 nM
same,LC50,NCI-H23 [3],> 32.5 µM
same,TGI,NCI-H23 [3],> 32.5 µM
same,GI50,HOP-92,509 nM
same,IC50,HOP-92,510 nM
same,LC50,HOP-92,> 32.5 µM
same,TGI,HOP-92,2230 nM
same,GI50,SR,1820 nM
same,TGI,SR,20 µM
same,CC50,SR,> 32.5 µM
same,GI50,HL-60(TB),1450 nM
same,TGI,HL-60(TB),> 32.5 µM
same,CC50,HL-60(TB),> 32.5 µM
same,growth at 10 µM,786-0 [4],34.4%
same,growth at 10 µM,SK-OV-3 [5],21.2%
same,growth at 10 µM,OVCAR-8,10.6%
same,growth at 10 µM,SK-MEL-2,-25.6%
same,growth at 10 µM,M14 [6],16.6%
same,growth at 10 µM,Malme-3M,1.16%
same,growth at 10 µM,LOX IMVI [7],23.8%
same,growth at 10 µM,SNB-19 [8],32.5%
same,growth at 10 µM,SF-268,28.5%
same,growth at 10 µM,HT-29 [9],77.8%
same,growth at 10 µM,HCT-116,9.75%
same,growth at 10 µM,COLO 205,94.2%
same,growth at 10 µM,NCI-H460,7.29%
same,growth at 10 µM,NCI-H23 [10],14.6%
same,GI50,ACHN,1290 nM
same,TGI,ACHN,> 32.5 µM
same,CC50,ACHN,> 32.5 µM
same,GI50,786-0 [11],4690 nM
same,TGI,786-0 [11],> 32.5 µM
same,CC50,786-0 [11],> 32.5 µM
same,GI50,SK-OV-3 [12],4.97 µM
same,TGI,SK-OV-3 [12],> 32.5 µM
same,CC50,SK-OV-3 [12],> 32.5 µM
same,GI50,OVCAR-3,1060 nM
same,IC50,OVCAR-3,1060 nM
same,TGI,OVCAR-3,6.13 µM
same,CC50,OVCAR-3,> 32.5 µM
same,GI50,UACC-62,1650 nM
same,LC50 (50% lethal concentration),UACC-62,21.9 µM
same,TGI,UACC-62,6.91 µM
same,GI50,SK-MEL-5,1300 nM
same,LC50 (concentration killing 50% of cells),SK-MEL-5,13.8 µM
same,TGI,SK-MEL-5,4710 nM
same,GI50,UACC-257,4340 nM
same,TGI,UACC-257,19.1 µM
same,CC50,UACC-257,> 32.5 µM
same,GI50,SK-MEL-28,4110 nM
same,LC50,SK-MEL-28,> 32.5 µM
same,TGI,SK-MEL-28,> 32.5 µM
same,GI50,M14 [13],1400 nM
same,LC50 (concentration killing 50% of cells),M14 [13],> 32.5 µM
same,TGI,M14 [13],10.8 µM
same,GI50,LOX IMVI [14],2530 nM
same,LC50,LOX IMVI [14],32.4 µM
same,TGI,LOX IMVI [14],9.58 µM
same,GI50,SNB-19 [15],1910 nM
same,LC50 (concentration killing 50% of cells),SNB-19 [15],> 32.5 µM
same,TGI,SNB-19 [15],> 32.5 µM
same,growth at 10 µM,HOP-62,38.1%
O=C(Nc1cccc(-n2cc(-c3ccncc3)c(-c3ccc(Cl)c(O)c3)n2)c1)Nc1ccc(Cl)c(C(F)(F)F)c1,growth at 10 µM,UO-31,-6.09%
same,growth at 10 µM,PC-3,-10.4%
same,GI50,HT-29 [1],1.28 µM
same,TGI,HT-29 [1],5.73 µM
same,CC50,HT-29 [1],22.6 µM
same,GI50,[2],1.06 µM
same,TGI,[2],4.12 µM
same,CC50,[2],20.7 µM
same,GI50,NCI-H23 [3],951 nM
same,LC50,NCI-H23 [3],26.1 µM
same,TGI,NCI-H23 [3],3.33 µM
same,GI50,HOP-92,376 nM
same,IC50,HOP-92,380 nM
same,LC50,HOP-92,13.5 µM
same,TGI,HOP-92,1460 nM
same,GI50,SR,715 nM
same,TGI,SR,2.52 µM
same,CC50,SR,> 32.5 µM
same,GI50,HL-60(TB),1500 nM
same,TGI,HL-60(TB),> 32.5 µM
same,CC50,HL-60(TB),> 32.5 µM
same,growth at 10 µM,786-0 [4],4.7%
same,growth at 10 µM,SK-OV-3 [5],7.47%
same,growth at 10 µM,OVCAR-8,-41.8%
same,growth at 10 µM,SK-MEL-2,-60.4%
same,growth at 10 µM,M14 [6],-25.5%
same,growth at 10 µM,Malme-3M,-16.6%
same,growth at 10 µM,LOX IMVI [7],-75.8%
same,growth at 10 µM,SNB-19 [8],-28.8%
same,growth at 10 µM,SF-268,-34.5%
same,growth at 10 µM,HT-29 [9],-6.5%
same,growth at 10 µM,HCT-116,-51%
same,growth at 10 µM,COLO 205,-60.2%
same,growth at 10 µM,NCI-H460,-43.7%
same,growth at 10 µM,NCI-H23 [10],-25.8%
same,GI50,ACHN,913 nM
same,TGI,ACHN,> 32.5 µM
same,CC50,ACHN,> 32.5 µM
same,GI50,786-0 [11],1280 nM
same,TGI,786-0 [11],> 32.5 µM
same,CC50,786-0 [11],> 32.5 µM
same,GI50,SK-OV-3 [12],1.34 µM
same,TGI,SK-OV-3 [12],14.9 µM
same,CC50,SK-OV-3 [12],> 32.5 µM
same,GI50,OVCAR-3,830 nM
same,IC50,OVCAR-3,830 nM
same,TGI,OVCAR-3,2.09 µM
same,CC50,OVCAR-3,> 32.5 µM
same,GI50,UACC-62,627 nM
same,LC50 (50% lethal concentration),UACC-62,3.16 µM
same,TGI,UACC-62,1.45 µM
same,GI50,SK-MEL-5,550 nM
same,LC50 (concentration killing 50% of cells),SK-MEL-5,2.13 µM
same,TGI,SK-MEL-5,1080 nM
same,GI50,UACC-257,768 nM
same,TGI,UACC-257,2.1 µM
same,CC50,UACC-257,8.39 µM
same,GI50,SK-MEL-28,978 nM
same,LC50,SK-MEL-28,12.4 µM
same,TGI,SK-MEL-28,3.33 µM
same,GI50,M14 [13],886 nM
same,LC50 (concentration killing 50% of cells),M14 [13],> 32.5 µM
same,TGI,M14 [13],2.77 µM
same,GI50,LOX IMVI [14],554 nM
same,LC50,LOX IMVI [14],2.39 µM
same,TGI,LOX IMVI [14],1.15 µM
same,GI50,SNB-19 [15],1120 nM
same,LC50 (concentration killing 50% of cells),SNB-19 [15],> 32.5 µM
same,TGI,SNB-19 [15],4.86 µM
same,growth at 10 µM,HOP-62,-17%
